In US20040197321A1, “Composition and method to prevent or reduce diarrhea and steatorrhea in HIV patients” (priority 2002, published 2004):
“Also recorded” adds a separate entry of the source. Counter-ions that a name gives are not always drawn. Like-named read-outs stand apart in the source and are kept apart here.

Columns and labels:
[1] = target: T1, USP Reference Standard Pancrelipase (Sus scrofa, UniProt P00591); assay: Lipase assay (USP titrimetric): inhibition of pancrelipase at pH 9.0; assay type: biochemical
T1 sequence (P00591 1-450): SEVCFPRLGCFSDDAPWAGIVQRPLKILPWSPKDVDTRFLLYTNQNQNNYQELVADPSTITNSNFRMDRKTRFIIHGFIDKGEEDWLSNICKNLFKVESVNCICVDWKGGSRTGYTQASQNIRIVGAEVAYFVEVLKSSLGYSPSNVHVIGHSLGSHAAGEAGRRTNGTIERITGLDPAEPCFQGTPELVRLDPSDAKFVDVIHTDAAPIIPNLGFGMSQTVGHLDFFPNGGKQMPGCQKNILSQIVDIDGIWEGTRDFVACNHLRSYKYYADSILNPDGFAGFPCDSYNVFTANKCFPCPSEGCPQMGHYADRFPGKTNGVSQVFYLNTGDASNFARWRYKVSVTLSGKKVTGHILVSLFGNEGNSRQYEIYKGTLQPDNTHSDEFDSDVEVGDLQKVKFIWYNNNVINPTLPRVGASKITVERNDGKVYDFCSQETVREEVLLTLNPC
Procedure: The enzyme sources consisted of USP Reference Standard Pancrelipase, USP Reference Standard Trypsin, colipase (Sigma Chemical Co.), and enterokinase (ICN Biochemicals). Appropriate concentrations of enzyme reference standard were prepared in cold distilled water, as described in USP reference assay procedures. The Infectious Disease Clinic in Somerville, N.J. provided the HAART medications. Pure drugs could not be obtained so commercial drug preparations were used in the assays. […] Appropriate concentrations of HAART drug, drug cocktails, and excipients were prepared in distilled water and reagent-grade methanol (Aldrich, Milwaukee, Wis.) or DMSO (Aldrich, Milwaukee, Wis.).
One unit (U) of lipase activity is defined as the amount of enzyme that liberates one μequivalent of free fatty acid from triglycerides per minute at pH 9.0 and 37° C. Lipase activity (U/mg) was determined by a lipase specific titrimetric assay described in the United States Pharmacopeia (USP), Volume XXII. In brief, the substrate consists of 10% olive oil in acacia solution, 40-mg/mL sodium taurocholate, 0.075M calcium chloride, 0.05M Tris in 3.0M NaCl buffer solution (pH 7.5) and distilled water. The emulsified substrate is incubated at 37° C. and brought to pH 9.0 with 0.02N NaOH. At time zero, 1.0 mL of enzyme solution was added. A pH stat autotitrator was used to maintain pH 9.0 and the volume of 0.02 N NaOH dispensed per unit time was recorded for five (5) minutes. From the initial slope of this plot, lipase activity was calculated using the following equation:
U/mg=slope (mL of NaOH dispensed/min)×N of NaOH×1000 /mg of enzyme assayed
HAART drug solutions were mixed with the substrate prior to incubation and addition of enzyme.

pancrelipase [2] = assay: Recovery of pancrelipase activity after inhibition, by addition of excess lipase; assay type: biochemical
Procedure: The above procedure was used to monitor pancrelipase activity with the exception that drug was not preincubated with the substrate. At time zero 1.0 mL of pancrelipase was added to initiate the reaction. At five (5) minutes, 1.0 mL of HAART drug solution was added to the reaction mixture to cause inhibition of lipase activity. At twelve (12) minutes an additional 1.0 mL of pancrelipase was added to the reaction mixture to overcome HAART inhibition. The reaction was monitored for twenty (20) minutes.

pancrelipase [3] = target: T2, pancrelipase (Sus scrofa, UniProt P00591); assay: Pancrelipase reactivation by colipase; assay type: biochemical; conditions: for % Lipase Activity with Colipase: colipase 5 μg/mL
T2 construct: Sigma Chemical Co. (colipase)
T2 sequence (P00591 1-450): T1 sequence (P00591 1-450)
Procedure: Junge et al., described the procedure for the reactivation of lipase by colipase. In brief, the above lipase assay procedure was used with the following variation: colipase solution replaced the distilled water so the concentration of colipase in the final reaction mixture was 5 μg/mL.

[4] = target: T3, USP Reference Standard Trypsin (Bos taurus, UniProt P00760); assay: Trypsin assay (spectrophotometric); assay type: biochemical; conditions: NRTI; drug 2.1*10^-4M (Drug Tested 44-141 μg/mL); trypsin 7.6 μg/mL; 25° C.
T3 sequence (P00760 24-246): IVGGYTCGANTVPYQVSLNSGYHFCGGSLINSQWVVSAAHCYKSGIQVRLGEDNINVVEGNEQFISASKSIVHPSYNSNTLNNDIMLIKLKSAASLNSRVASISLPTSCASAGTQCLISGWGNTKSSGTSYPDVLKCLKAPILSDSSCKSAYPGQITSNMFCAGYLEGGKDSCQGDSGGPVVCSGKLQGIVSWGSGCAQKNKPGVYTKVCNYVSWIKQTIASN
Procedure: Appropriate concentrations of enzyme reference standard were prepared in cold distilled water, as described in USP reference assay procedures. The Infectious Disease Clinic in Somerville, N.J. provided the HAART medications. Pure drugs could not be obtained so commercial drug preparations were used in the assays. […] Appropriate concentrations of HAART drug, drug cocktails, and excipients were prepared in distilled water and reagent-grade methanol (Aldrich, Milwaukee, Wis.) or DMSO (Aldrich, Milwaukee, Wis.).

HIV patients = conditions: Kakuda et al. 1998; cited from earlier work
[5] = pH 9.0, read-out: IC50 for inhibitors of pancrelipase (converted)

With “D-α-tocopheryl polyethylene glycol 1000 succinate [TPGS]” the “inhibition of pancrelipase (in words)” value [1] was “significantly inhibited; also recorded: significant inhibition”, the “IC50 for inhibitors of pancrelipase” value ([1]; pH 9.0) was 275 µg/mL and the “% Inhibition of Pancrelipase” value ([1]; pH 9.0, Wt % Excipient in Source Used 0.2) was 6%. The “% Inhibition of Pancrelipase” value ([1]; pH 9.0, Wt % Excipient in Source Used 0.5) was 43%, the “% Inhibition of Pancrelipase” value ([1]; pH 9.0, Wt % Excipient in Source Used 1) was 79% and the “% Inhibition of Pancrelipase” value ([1]; pH 9.0, Wt % Excipient in Source Used 2) was 93%. The “% Inhibition of Pancrelipase” value ([1]; pH 9.0, Wt % Excipient in Source Used 4) was 95%, the “% Inhibition of Pancrelipase” value ([1]; pH 9.0, Wt % Excipient in Source Used 20) was 96% and the IC50 [1, 5] was 182 µM. The “effect of addition of excess lipase on the inhibition of pancrelipase (in words)” value (pancrelipase [2]) was “can be overcome”, the “% Reactivation of Pancrelipase” value (pancrelipase [2]; after addition of excess lipase (additional 1.0 mL pancrelipase at 12 minutes)) was 98% and the “% Pancrelipase Activity” value (pancrelipase [2]; drug inhibited, before addition of excess lipase) was 55%. The “effect of added colipase on the inhibition of pancrelipase (in words)” value (pancrelipase [3]) was “reversed; also recorded: restored pancrelipase activity”, the “% Lipase Activity No Colipase” value (pancrelipase [3]; Drug Conc. 10.0 mg/mL) was 21% and the “% Lipase Activity with Colipase” value (pancrelipase [3]; Drug Conc. 10.0 mg/mL) was 79%.
In the case of Nc1ccn([C@H]2CC[C@@H](CO)O2)c(=O)n1 [Zalcitabine USP Ref. STND, 2′,3′-Dideoxycytidine], the “Inhibition of Tryspin” value [4] is reported as 0%.
In the case of Cc1c(O)cccc1C(=O)N[C@@H](CSc1ccccc1)[C@H](O)CN1C[C@H]2CCCC[C@H]2C[C@H]1C(=O)NC(C)(C)C [nelfinavir, 2-[2′-hydroxy-3′-phenylthiomethyl-4′-aza-5′-oxo-5′-(2″-methyl-3″-hydroxyphenyl)pentyl]decahydroisoquinoline-3-N-t-butyl-carboxamide], the “HIV patients who experience diarrhea” value (HIV patients) is given as 12-20%.
In the case of CC(C)(C)NC(=O)[C@@H]1C[C@@H]2CCCC[C@@H]2CN1C[C@@H](O)[C@H](Cc1ccccc1)NC(=O)[C@H](CC(N)=O)NC(=O)c1ccc2ccccc2n1 [FORTOVASE ®, Saquinavir], the IC50 ([1]; IC50 for inhibitors of pancrelipase, pH 9.0) is reported as 3230 µM.
For Vitamin E, the “% Inhibition of Pancrelipase” value ([1]; pH 9.0, Wt % Excipient in Source Used 50) was 20%.
Work on Cc1c(O)cccc1C(=O)N[C@@H](CSc1ccccc1)[C@H](O)CN1C[C@H]2CCCC[C@H]2C[C@H]1C(=O)NC(C)(C)C [VIRACEPT ®, Nelfinavir mesylate] yielded an IC50 [1, 5] of 780 µM.
In the case of CCCCCCCCCCC[C@@H](C[C@@H]1OC(=O)[C@H]1CCCCCC)OC(=O)[C@H](CC(C)C)NC=O [ORLISTAT, Orlistat, reference compound], the “effect of added colipase on the inhibition of pancrelipase (in words)” value (pancrelipase [3]) is reported as “no effect”, the “% Lipase Activity No Colipase” value (pancrelipase [3]; Drug Conc. 0.002 mg/mL) is reported as 37% and the “% Lipase Activity with Colipase” value (pancrelipase [3]; Drug Conc. 0.002 mg/mL) is reported as 29%.
